Series [1] can be described thus: oil-in-water coefficient (logP) of nalbuphine and pro-soft drugs. It counts as physicochemical.
Series [2] is described as follows: drug saturated solubility in water. In kind it is physicochemical.
For series [3] the following is noted: PLGA microspheres, subcutaneous injection, 50 mg/rabbit; cited from earlier work.

Each structure is given as a SMILES string.

The source of these data is patent US20140112957A1, “Analegisic (Sebacoyl dinalbuphine ester) PLGA controlled release formulation form” (OLIVER YAO-PU HU, priority 2012, published 2014).

As a reminder, the logP is a log measure of how a compound divides between an organic and an aqueous phase. The low end stands for a more hydrophilic compound, the high end for a more lipophilic compound. The Aqueous solubility is how much of the substance goes into solution per volume. In series [1], `CCCCCCCCCC(=O)Oc1ccc2c3c1O[C@H]1[C@@H](O)CC[C@@]4(O)[C@@H](C2)N(CC2CCC2)CC[C@]314` [Nalbuphine decanoate] came in with a lipophilicity (logP) of 3.30. Further, the Aqueous solubility in series [2] was 0.67 µg/mL. Moreover, the “time the effective serum concentration lasted” value in series [3] is reported as 4 days.

As to `CCCCCCC(=O)Oc1ccc2c3c1O[C@H]1[C@@H](O)CC[C@@]4(O)[C@@H](C2)N(CC2CCC2)CC[C@]314` [Nalbuphine enanthate], the logP in series [1] turned out to be 1.94. In addition, the Aqueous solubility in series [2] worked out at 3.00 µg/mL.

`CC(C)(C)C(=O)Oc1ccc2c3c1O[C@H]1[C@@H](O)CC[C@@]4(O)[C@@H](C2)N(CC2CCC2)CC[C@]314` [Nalbuphine pivalate]: the logP in series [1] turned out to be 1.42. The compound also returned an Aqueous solubility in series [2] of 33.67 µg/mL. Besides, the “time the effective serum concentration lasted” value in series [3] is 4 days.

The compound `CCC(=O)Oc1ccc2c3c1O[C@H]1[C@@H](O)CC[C@@]4(O)[C@@H](C2)N(CC2CCC2)CC[C@]314` [Nalbuphine propionate] gave a logP in series [1] of 1.05. This compound displayed an Aqueous solubility in series [2] of 44.67 µg/mL. Besides, the “time the effective serum concentration lasted” value in series [3] was 4 days.

As for `O=C(CCCCCCCCC(=O)Oc1ccc2c3c1O[C@H]1[C@@H](O)CC[C@@]4(O)[C@@H](C2)N(CC2CCC2)CC[C@]314)Oc1ccc2c3c1O[C@H]1[C@@H](O)CC[C@@]4(O)[C@@H](C2)N(CC2CCC2)CC[C@]314` [Sebacoyl dinalbuphine ester], the logP in series [1] is given as 3.15. The compound also registered an Aqueous solubility in series [2] below 0.25 µg/mL.
